Test results taken from patent US20080227806A1, “Novel Drugs for Dementia” (AMERICAN LIFE SCIENCE PHARMACEUTICALS, priority 2005, published 2008).
Values joined by “and” are separate entries in the source; they are usually repeats but may differ in a detail not shown here. Equal values may be shown once.

Tests used:
[1] = system: total Aβ (Ab40 and Ab42); assay: Brain total Aβ by ELISA after icv infusion into guinea pig brains; format: in vivo; conditions: constant icv infusion, 1 mg/ml
Excerpt: (§1) In vivo icv administration of protease inhibitors into guinea pig brains. Guinea pigs (Harley strain, 300-500 grams) were obtained from Charles River (Wilmington, Mass.). The animals were given free access to food and water before and during the experiment. An ALZET osmotic mini-pump (ALZET company, Cupertino, Calif.) was implanted subcutaneously in the mid-scapular area of the back of each animal. A catheter was connected to the osmotic mini-pump and inserted into the lateral ventricle of the brain (using a brain infusion kit manufactured by ALZET).
(§2) E64d or CA074Me (from CalBiochem, San Diego, Calif.) were each administered to guinea pig brains by icv minipump infusion at a rate of […] with each compound at 1 mg/ml in saline (with 1.5% DMSO). Each e64d and control group consisted of five animals; each CA074Me and control group consisted of ten animals. Continuous infusion was conducted for 7 days and 30 days. At the end of each infusion period, animals were sacrificed and half the brain was prepared as extracts for ELISA measurement of Aβ peptide levels conducted in triplicate with Ab ELISAs (from Biosource International). The other half brain was used for isolation of synaptosome preparations and Ab analyses.
(§3) Brain Extracts. Brain extracts were prepared by subjecting fresh tissues to homogenization at 1:10 w/v in guanidine buffer consisting of 5 M guanidine-HCl in 50 mM Tris-HCl, pH 8.3 (buffer reagents from Sigma-Aldrich, St. Louis, Mo.). Homogenates were agitated at room temperature for 3-4 hours, then stored at −20° C. The day before the ELISA assay, the tissue samples were diluted further by 1:10 for a final guanidine concentration of 0.5 M. These diluted homogenates were then centrifuged at 14,000 rpm for 20 minutes at 4° C. and supernatants were collected for measurement of total Ab, and Aβ40 and Aβ42 separately, by ELISA assay. Isolation of synaptosomes from brain. Synaptosomes were prepared by homogenization of fresh brain tissue in isotonic sucrose (320 mM), pH 7.4, 1 mM EDTA, 0.25 mM dithiothreitol, and 30 U/ml RNAse inhibitor. […] For quantitation of Aβ peptides, ELISA assays were used to measure Aβ levels. […] CTFβ fragments derived from APP were analyzed by western blots with antibody MAB 1560 (Chemicon, Temecula, Calif.). The sAPPα fragment derived from APP was analyzed by western blots with antibody MAB 343 (Chemicon, Temecula, Calif.). […]
(§4) Data Analyses. Data were analyzed by one-way analysis of variance for analyses of statistical significance of the effects of compounds on Ab levels, with p<0.05 indicating statistical significance, using GraphPad Prism software program. Following ANOVA analyses among treatment groups, individual group values for Ab levels were analyzed using Dunnett's multiple comparison test. […]

[2] = system: Aβ40; assay: Brain Aβ40 by specific ELISA after icv infusion; format: in vivo; conditions: guinea pig, 7 days
Excerpt: as §1, with “ALZET). […]” for “ALZET).”
(§5) Brain Extracts. […] For quantitation of Aβ peptides, ELISA assays were used to measure Aβ levels. […] CTFβ fragments derived from APP were analyzed by western blots with antibody MAB 1560 (Chemicon, Temecula, Calif.). The sAPPα fragment derived from APP was analyzed by western blots with antibody MAB 343 (Chemicon, Temecula, Calif.). […]
as §4

[3] = system: Aβ42; assay: Brain Aβ42 by specific ELISA after icv infusion; format: in vivo; conditions: guinea pig, 7 days
Excerpt: as §1, with “ALZET). […]” for “ALZET).”
as §5, §4

[4] = system: synaptosome Aβ; assay: Synaptosome total Aβ by ELISA after icv infusion; format: in vivo; conditions: guinea pig
Excerpt: as §1, §2, §3, §4

[5] = system: CTFβ; assay: Brain CTFβ by western blot densitometry after icv infusion; format: in vivo; conditions: guinea pig, 7 days, densitometric scanning of western blots
Excerpt: as §1, with “ALZET). […]” for “ALZET).”
as §5, §4

[6] = system: sAPPα; assay: Brain sAPPα by western blot densitometry after icv infusion; format: in vivo; conditions: guinea pig, 7 days, densitometric scanning of western blots
Excerpt: as §1, with “ALZET). […]” for “ALZET).”
as §5, §4

[7] = system: hippocampus neurons; conditions: primate ischemic animal model; cited from earlier work
[8] = rats, high dose; cited from earlier work
[9] = Japan; cited from earlier work
[10] = Phase III study; cited from earlier work

Row | Structure (SMILES) | reduction of brain total Aβ relative to control ([1]; 7 days) [%] | reduction of brain total Aβ relative to control ([1]; 30 days) [%] | reduction of Aβ40 in brain extracts [2] [%] | reduction of Aβ42 in brain [3] [%] | reduction of synaptosome Aβ relative to controls ([4]; 7 days) [%] | reduction of synaptosome Aβ relative to controls ([4]; 30 days) [%] | reduction in brain CTFβ relative to controls [5] | increase in brain sAPPα above control [6] [%] | protection of brain neurons during ischemia [7] | liver toxicity [8] | Phase I clinical trial outcome [9] | efficacy for muscular dystrophy [10]
1 | CCCNC(=O)[C@H]1O[C@@H]1C(=O)N[C@H](C(=O)N1CCC[C@H]1C(=O)OC)[C@@H](C)CC [CA074Me, L-Proline, N[[(2S,3S)3[(propylamino)carbonyl]oxiranyl]carbonyl]-L-isoleucyl-, methyl ester] | 57 | 62 | 47 | 56 | 62 | 74 | 45% and 44% | 60 | – | – | – | –
2 | CCCNC(=O)C1OC1C(=O)NC(C(=O)N1CCCC1C(=O)O)C(C)CC (centres unmarked) [CA074, 1-{3-methyl-2-[(3-propylcarbamoyl-oxiranecarbonyl)-amino]-pentanoyl}-pyrrolidine-2-carboxylic acid] | – | – | – | – | – | – | – | – | protect hippocampus neurons from damage | – | – | –
3 | CCOC(=O)[C@H]1O[C@@H]1C(=O)N[C@@H](CC(C)C)C(=O)NCCC(C)C [E64d, oxiranecarboxylic acid, 3-[[[(1S)-3-methyl-1-[[(3-methylbutyl)amino]carbonyl]butyl]amino]carbonyl], ethyl ester] | 31 | 55 | – | – | 27 | 50 | – | – | – | liver toxicity was found | successfully passed Phase I clinical trials | low efficacy for muscular dystrophy
4 | CC(C)CCNC(=O)C(CC(C)C)NC(=O)C1OC1C(=O)O (centres unmarked) [e64c, 3-[3-methyl-1-(3-methyl-butylcarbamoyl)-butylcarbamoyl]-oxirane-2-carboxylic acid] | – | – | – | – | – | – | – | – | protect hippocampus neurons from damage | – | – | –
